Results reported in patent publication US20240366551A1, “MIXTURES AND COMPOSITIONS COMPRISING SULFORAPHANE AND GLYCINE” (SOCIETE DES PRODUITS NESTLE S.A., priority 2021, published 2024).

System: Zebrafish larvae
Assay: Zebrafish larvae survival assay under hydrogen peroxide oxidative stress
Type: in vivo, zebrafish (AB strain)
Details: for larvae survived: compound 12 h before H2O2, survival after 24 h
Description: Zebrafish larvae provide a suitable vertebrate model for studying the oxidative stress […]. […] Survival assays were performed according to a protocol described previously^36 with some modifications. Briefly, wild-type zebrafish larvae
(AB strain, ZFIN ID: ZDB-GENO-960809-7) were used. At 3.5 days post fertilization (dpf), 24 larvae per condition were placed in a 60-mm petri dish with 5 ml of egg water (0.6 g/L Ocean sea salt, Tecniplast). Compounds of interest were directly added into the egg water for 12 h. Subsequently, compounds were removed at 4 days post fertilization (dpf4) and larvae were transferred to a 96-well plate in a volume of 200 μl fresh egg water containing 2.5 mM hydrogen peroxide (H2O2; Sigma Merck). Survival was monitored after 24 h of treatment.

| Compound | larvae survived (vehicle+2.5 mM H2O2+500 μM L-glycine) [%] | Predicted (LS) mean diff (survival, comparison 0 μM vs. treated group, 2.5 mM H2O2, 2 way ANOVA, Tukey's) | larvae survived (vehicle+2.5 mM H2O2+1 μM Sfn) [%] |
| --- | --- | --- | --- |
| NCC(=O)O [L-glycine] | ~10 | – | – |
| C[S+]([O-])CCCCN=C=S (stereo not drawn) [Sfn, 4-methylsulfinylbutyl isothiocyanate] | – | −7.077 | ~10 |
